For data set [1], the system named is serum alanine aminotransferase activity. Put plainly: serum alanine aminotransferase (ALT) activity in acetaminophen-treated mice. The format is in vivo. The following applies: no pre-exposure to GSPE, 24 h. The procedure:
(§1) Trials of the efficacy of GSPE in preventing acetaminophen toxicity were performed using mice as test subjects. The GSPE used in the subject trials is a standardized water-ethanol extract from red grape seeds, identified as IH636 by InterHealth Nutraceuticals, Inc., of Concord, Calif. The dosage used in the subject trials was 100 mg of GSPE per kg of body weight, daily for three or seven days. This dosage is equivalent to about […] of body weight, based on the following formula from the CRC Handbook of Toxicology, Delanko M. J. and Hollinger M. A. eds., CRC Press 1995, p. 654:
(§2) GSPE was dissolved in phosphate-buffered saline solution and the solution was administered orally. Acetaminophen then was administered intraperitoneally, as a single toxic dose, in dosage of either 400 or 500 mg/kg. These dosage levels are equivalent to approximately 10 grams for normal healthy adults and 4 to 6 grams for alcoholics, levels that have been found toxic for humans. Twenty-four hours after administration of the acetaminophen, blood samples were removed from the subjects and analyzed for serum alanine aminotransferase activity, a well-known biomarker of liver toxicity. Liver samples also were taken and analyzed them for apoptotic and necrotic cell death DNA damage and gene expression.

The test system of the next data set is mice. The data set can be described thus: number of deaths of mice treated with acetaminophen and GSPE. The format is in vivo. As to conditions: without pre-exposure to GSPE. Here is the method: as §1, §2
In a further data set the test system is liver tissue. Put plainly: DNA fragmentation assay of liver tissue from acetaminophen-treated mice. The format is in vivo. The following applies: without pre-exposure to GSPE. Here is the method: as §1, §2
Another data set has as its system liver sections. Put plainly: liver sections at 400× magnification (histology). The format is in vivo, mice. The following applies: acetaminophen 500 mg/kg without GSPE pre-treatment; FIG. 11. Here is the method:
as §1
FIGS. 9 through 12 show comparison liver sections from test subjects at 400× magnification. FIGS. 9 and 10 show normal liver sections from test subjects not given acetaminophen.

Another data set has as its system humans. The following applies: normal healthy adults; cited from earlier work.

For `CC(=O)Nc1ccc(O)cc1` [acetaminophen, N-acetyl-p-amino phenol], the “serum ALT” value in data set [1] (acetaminophen 400 mg/kg i.p.) is given as “about 22,000 U/L”; in data set [1] (acetaminophen 500 mg/kg i.p.) it was “about 30,000 U/L”. Besides, the number of deaths in the data set with mice (acetaminophen 400 mg/kg) turned out to be 2; in the data set with mice (acetaminophen 500 mg/kg), 4. The DNA fragmentation result in the data set with liver tissue (acetaminophen 400 mg/kg) is given as “about 3.5 times that of the control group”; in the data set on liver tissue (acetaminophen 500 mg/kg), “about 4.8 times that of the control group”. Moreover, in the data set with liver sections, the “liver section appearance indicating toxicity” value is “whitening and browning of cells, indicating toxicity”. The “dosage level found toxic for humans” value with humans was “approximately 10 grams”.

The values above are taken from patent US6245336A, “Prevention and treatment of acetaminophen toxicity with grape seed proanthocyanidin extract” (Dry Creek Nutrition, Inc., priority 1999, dated 2001).
